Literature values in patent US20070250301A1, “Normalizing cell assay data for models” (Cytokinetics, Inc., A Delaware Corporation, priority 2006, published 2007).
Numbered stars: 1 amine (or outer) side, 2 acyl side, 3 side chain; on linkers, the order of the positions; unused ones are H or OH. Bridge positions count the residues as written; N and C are the ends. Square brackets hold non-standard residues; d marks the D form. Peptide text beside a SMILES is read from it. Trp(2-yl) = O=C([C@H](Cc1c([*:3])[nH]c2ccccc12)N[*:1])[*:2]; Leu(4R-OH,5-OH) = C[C@](O)(CO)C[C@H](N)C(=O)O; cisHyp = O=C(O)[C@@H]1C[C@H](O)CN1

Tests used:
bile flow = details: rats; resulting in cholestatic injury
[1] = test system: filamentous F actin around canaliculi and tight junctions

| SMILES | effect on bile flow (bile flow) | effect on filamentous F actin [1] |
| --- | --- | --- |
| C=C1[C@@H](C)[C@H]2[C@H](Cc3ccccc3)NC(=O)[C@]23OC(=O)/C=C/[C@H](O)CCC[C@@H](C)C/C=C/[C@H]3[C@@H]1O [cytochalasin B] | prompt arrest of bile flow | – |
| C[C@@H]1NC(=O)[C@H](C[C@@](C)(O)CO)NC(=O)[C@@H]2Cc3c([nH]c4ccccc34)SC[C@H](NC(=O)[C@@H]([C@H](C)O)NC1=O)C(=O)N1C[C@@H](O)C[C@H]1C(=O)N[C@@H](C)C(=O)N2 [phalloidin] (cyclo(A[dT]C[cisHyp]A[Trp(2-yl)][Leu(4R-OH,5-OH)]); thioether 3-6) | – | increase in filamentous F actin |
